Measurements from patent publication US20240148821A1, “PHARMACEUTICAL USE OF CYCLIC PEPTIDE COMPOUND” (CHUGAI SEIYAKU KABUSHIKI KAISHA, priority 2021, published 2024).
Numbered stars: 1 amine (or outer) side, 2 acyl side, 3 side chain; on linkers, the order of the positions; unused ones are H or OH. Bridge positions count the residues as written; N and C are the ends. Square brackets hold non-standard residues; d marks the D form. Peptide text beside a SMILES is read from it. * marks the point of attachment. hPhe(3,5-F2-4-CF3) = N[C@@H](CCc1cc(F)c(C(F)(F)F)c(F)c1)C(=O)O; hPhe(3-Cl-4-CF3) = N[C@@H](CCc1ccc(C(F)(F)F)c(Cl)c1)C(=O)O; hPhe(3-F,4-CF3) = N[C@@H](CCc1ccc(C(F)(F)F)c(F)c1)C(=O)O; X27 = CN([C@@H](Cc1ccc(C(F)(F)F)nc1)C(=O)[*:2])[*:1]; hPhe(4-CF3) = N[C@@H](CCc1ccc(C(F)(F)F)cc1)C(=O)O; NEtPhe(4-Me) = CCN[C@@H](Cc1ccc(C)cc1)C(=O)O; NMePhe(4-Cl) = CN[C@@H](Cc1ccc(Cl)cc1)C(=O)O; NMePhe(4-Me) = CN[C@@H](Cc1ccc(C)cc1)C(=O)O; NMedβ3hAla = C[C@H](CC(=O)[*:2])N(C)[*:1]; NMeGly(cPent) = CN[C@H](C(=O)O)C1CCCC1; X136 = O=C(CN(CCN1CCNCC1)[*:1])[*:2]; NMeCha = CN[C@@H](CC1CCCCC1)C(=O)O; X82 = O=C(CN(CCC1CNC1)[*:1])[*:2]; Hyp = O=C(O)[C@@H]1C[C@@H](O)CN1; NMeChg = CN[C@H](C(=O)O)C1CCCCC1; NMeI = CC[C@H](C)[C@H](NC)C(=O)O; X138 = NCCOCCN(CC(=O)[*:2])[*:1]; X58 = CNCCOCCN(CC(=O)[*:2])[*:1]; Cha = N[C@@H](CC1CCCCC1)C(=O)O; NMeD = CN[C@@H](CC(=O)O)C(=O)O; NMeL = CN[C@@H](CC(C)C)C(=O)O; NMePra = C#CC[C@H](NC)C(=O)O; NMeV = CN[C@H](C(=O)O)C(C)C; hSer = N[C@@H](CCO)C(=O)O; NMeA = CN[C@@H](C)C(=O)O; NMeAib = CNC(C)(C)C(=O)O; Piperidide = C1CCN(*)CC1; Pyrrolidide = C1CCN(*)C1; Ac5c = NC1(C(=O)O)CCCC1; Aze = O=C(O)[C@@H]1CCN1; Alloc = C=CCOC(=O)*; NEtG = CCNCC(=O)O; Sar = CNCC(=O)O

Experiments:
[1] = target: protein-protein interaction between Kras and SOS1 (biotin-tagged human Kras loaded with GDP, His-tagged human SOS1) (Homo sapiens (Human), UniProt P01116, G12D); assay: Protein-protein interaction inhibition between Kras and SOS1 (KrasG12D-SOS PPI) using AlphaScreen; type: biochemical; settings: AlphaScreen; biotin-tagged human Kras loaded with GDP, His-tagged human SOS1; read-out: KRAS G12D-SOS PPI IC50;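 also: kras produced in E. coli, Ni-coupled donor beads and streptavidin acceptor beads, excitation 680 nm with emission detected at 520–620 nm via singlet oxygen transfer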
[2] = test system: Human pancreatic cancer cell line AsPC-1 (G12D mutation Kras); assay: AsPC-1 cell growth inhibition (AsPC-1 CGI); type: cell-based; settings: read-out: AsPC-1 cell growth inhibition, 50% growth inhibitory concentration (IC50 value); 96 hours, CellTiter-Glo, values classified in ranges
Experimental: Test compounds were serially dilated with dimethyl sulfoxide, and 200 nL was then dispensed to a U-bottom 96-well plate using Labcyte Echo. […] The cell suspension was dispensed to a. plate containing a test compound at 100 μL per well and incubated at 37° C. in a 5% carbon dioxide gas incubator. 96 hours later, 80 μL of CellTiter-Glo (Promega) was added to each well and fluorescence was measured.

SMILES	IC50 [1] [nM]	IC50 [2] [nM]
CC(C)C[C@H]1C(=O)N[C@@H](CC2CCCCC2)C(=O)N(C)CC(=O)N(C)CC(=O)N(C)[C@@H](CC2CCCCC2)C(=O)N(C)CC(=O)N[C@@H](CCc2ccc(C(F)(F)F)c(Cl)c2)C(=O)N2CCC[C@H]2C(=O)NC2(CCCC2)C(=O)N(C)[C@@H](C2CCCCC2)C(=O)N(C)[C@H](C(=O)N2CCCCC2)CC(=O)N1C [Compound 1] ([NMeL][Cha][Sar][Sar][NMeCha][Sar][hPhe(3-Cl-4-CF3)]P[Ac5c][NMeChg][NMeD]-Piperidide; lactam N-11)	5.9	> 500
CC[C@H](C)[C@@H]1NC(=O)[C@H](CC(C)C)N(C)C(=O)C[C@@H](C(=O)N(C)C)N(C)C(=O)[C@H](C2CCCC2)N(C)C(=O)C2(CCCC2)NC(=O)[C@@H]2CCCN2C(=O)[C@H](CCc2ccc(C(F)(F)F)c(Cl)c2)NC(=O)CN(CC)C(=O)[C@H](Cc2ccc(C)cc2)N(C)C(=O)[C@@H]2CCN2C(=O)[C@H](C)N(C)C1=O [Compound 5] ([NMeL]I[NMeA][Aze][NMePhe(4-Me)][NEtG][hPhe(3-Cl-4-CF3)]P[Ac5c][NMeGly(cPent)][NMeD]-NMe2; lactam N-11)	0.99	≤ 20
CC[C@H](C)[C@@H]1NC(=O)[C@H](CC(C)C)N(C)C(=O)C[C@@H](C(=O)N2CCCCC2)N(C)C(=O)[C@H](C2CCCCC2)N(C)C(=O)C2(CCCC2)NC(=O)[C@H](Cc2ccc(C(F)(F)F)nc2)N(C)C(=O)[C@H](CCc2ccc(C(F)(F)F)c(Cl)c2)NC(=O)CN(C)C(=O)[C@H](CC2CCCCC2)N(C)C(=O)CN(C)C(=O)CN(C)C1=O [Compound 10] ([NMeL]I[Sar][Sar][NMeCha][Sar][hPhe(3-Cl-4-CF3)][X27][Ac5c][NMeChg][NMeD]-Piperidide; lactam N-11)	18	> 500
C=CCOC(=O)NCCCC[C@@H]1NC(=O)[C@H](CCc2ccc(C(F)(F)F)cc2)NC(=O)CN(C)C(=O)[C@H](Cc2ccc(Cl)cc2)N(C)C(=O)CN(C)C(=O)CN(C)C(=O)[C@H]([C@@H](C)CC)NC(=O)[C@H](CC(C)C)N(C)C(=O)C[C@@H](C)N(C)C(=O)[C@H](CC(C)C)NC(=O)C(C)(C)N(C)C1=O [Compound 12] (cyclo(I[Sar][Sar][NMePhe(4-Cl)][Sar][hPhe(4-CF3)]K(Alloc)[NMeAib]L[NMedβ3hAla][NMeL]))	240	> 500
CC[C@H](C)[C@@H]1NC(=O)[C@H](CC(C)C)N(C)C(=O)C[C@@H](C(=O)N(C)C)N(C)C(=O)[C@H](C2CCCC2)N(C)C(=O)C2(CCCC2)NC(=O)[C@@H]2CCCN2C(=O)[C@H](CCc2ccc(C(F)(F)F)c(F)c2)NC(=O)CN(C)C(=O)[C@H](Cc2ccc(C)cc2)N(C)C(=O)[C@@H]2CCN2C(=O)[C@H](C)N(C)C1=O [Compound 16] ([NMeL]I[NMeA][Aze][NMePhe(4-Me)][Sar][hPhe(3-F,4-CF3)]P[Ac5c][NMeGly(cPent)][NMeD]-NMe2; lactam N-11)	0.7	≤ 20
COCC[C@@H]1NC(=O)[C@H](CC(C)C)N(C)C(=O)C[C@@H](C(=O)N2CCCCC2)N(C)C(=O)[C@H](C(C)C)N(C)C(=O)C2(CCCC2)NC(=O)[C@@H]2CCCN2C(=O)[C@H](CCc2ccc(C(F)(F)F)c(Cl)c2)NC(=O)CN(C)C(=O)[C@H](CC2CCCCC2)N(C)C(=O)[C@@H]2CCN2C(=O)[C@H](C)N(C)C1=O [Compound 17] ([NMeL][hSer](Me)[NMeA][Aze][NMeCha][Sar][hPhe(3-Cl-4-CF3)]P[Ac5c][NMeV][NMeD]-Piperidide; lactam N-11)	30	> 500
CC[C@H](C)[C@@H]1NC(=O)[C@H](CC(C)C)N(C)C(=O)C[C@@H](C(=O)N2CCCC2)N(C)C(=O)[C@H](C2CCCC2)N(C)C(=O)C2(CCCC2)NC(=O)[C@@H]2CCCN2C(=O)[C@H](CCc2ccc(C(F)(F)F)c(F)c2)NC(=O)CN(C)C(=O)[C@H](Cc2ccc(C)cc2)N(C)C(=O)[C@@H]2CCN2C(=O)[C@H](C)N(C)C1=O [Compound 20] ([NMeL]I[NMeA][Aze][NMePhe(4-Me)][Sar][hPhe(3-F,4-CF3)]P[Ac5c][NMeGly(cPent)][NMeD]-Pyrrolidide; lactam N-11)	0.76	≤ 20
C#CC[C@H]1C(=O)N(C)CC(=O)N[C@@H](CCc2ccc(C(F)(F)F)c(Cl)c2)C(=O)N2CCC[C@H]2C(=O)NC2(CCCC2)C(=O)N(C)[C@@H](C(C)C)C(=O)N(C)[C@H](C(=O)N2CCCCC2)CC(=O)N(C)[C@@H](CC(C)C)C(=O)N[C@@H]([C@@H](C)CC)C(=O)N(C)[C@@H](C)C(=O)N2CC[C@H]2C(=O)N1C [Compound 32] ([NMeL]I[NMeA][Aze][NMePra][Sar][hPhe(3-Cl-4-CF3)]P[Ac5c][NMeV][NMeD]-Piperidide; lactam N-11)	20	> 500
CCO[C@@H]1C[C@H]2C(=O)NC3(CCCC3)C(=O)N(C)[C@@H]([C@@H](C)CC)C(=O)N(C)[C@H](C)CC(=O)N(C)[C@@H](CC(C)C)C(=O)N[C@@H]([C@@H](C)CC)C(=O)N(C)[C@@H](C)C(=O)N3CC[C@H]3C(=O)N(CC)[C@@H](Cc3ccc(C)cc3)C(=O)N(C)CC(=O)N[C@@H](CCc3cc(F)c(C(F)(F)F)c(F)c3)C(=O)N2C1 [Compound 33] (cyclo([Ac5c][NMeI][NMedβ3hAla][NMeL]I[NMeA][Aze][NEtPhe(4-Me)][Sar][hPhe(3,5-F2-4-CF3)][Hyp](Et)))	6.9	≤ 20
CC[C@H](C)[C@@H]1NC(=O)[C@H](CC(C)C)N(C)C(=O)C[C@@H](C(=O)N(C)C)N(C)C(=O)[C@H](C2CCCC2)N(C)C(=O)C2(CCCC2)NC(=O)CN(CCC2CNC2)C(=O)[C@H](CCc2ccc(C(F)(F)F)c(F)c2)NC(=O)CN(C)C(=O)[C@H](CC2CCCCC2)N(C)C(=O)[C@@H]2CCN2C(=O)[C@H](C)N(C)C1=O [Compound 2182, (3S,6S,9S,13S,16S,25S,31S,34S)-23-[2-(azetidin-3-yl)ethyl]-31-(cyclohexylmethyl)-16-cyclopentyl-25-[2-[3-fluoro-4-(trifluoromethyl)phenyl]ethyl]-9-isobutyl-N,N,3,4,10,14,17,29,32-nonamethyl-6-[(1S)-1-methylpropyl]-2,5,8,11,15,18,21,24,27,30,33-undecaoxo-spiro[1,4,7,10,14,17,20,23,26,29,32-undecazabicyclo[32.2.0]hexatriacontane-19,1′-cyclopentane]-13-carboxamide] ([NMeL]I[NMeA][Aze][NMeCha][Sar][hPhe(3-F,4-CF3)][X82][Ac5c][NMeGly(cPent)][NMeD]-NMe2; lactam N-11)	3.6	–
CC[C@H](C)[C@@H]1NC(=O)[C@H](CC(C)C)N(C)C(=O)C[C@@H](C(=O)N(C)C)N(C)C(=O)[C@H](C2CCCC2)N(C)C(=O)C2(CCCC2)NC(=O)CN(CCOCCNC)C(=O)[C@H](CCc2ccc(C(F)(F)F)c(Cl)c2)NC(=O)CN(C)C(=O)[C@H](CC2CCCCC2)N(C)C(=O)[C@@H]2CCN2C(=O)[C@H](C)N(C)C1=O [Compound 2183, (3S,6S,9S,13S,16S,25S,31S,34S)-25-[2-[3-chloro-4-(trifluoromethyl)phenyl]ethyl]-31-(cyclohexylmethyl)-16-cyclopentyl-9-isobutyl-N,N,3,4,10,14,17,29,32-nonamethyl-23-[2-[2-(methylamino)ethoxy]ethyl]-6-[(1S)-1-methylpropyl]-2,5,8,11,15,18,21,24,27,30,33-undecaoxo-spiro[1,4,7,10,14,17,20,23,26,29,32-undecazabicyclo[32.2.0]hexatriacontane-19,1′-cyclopentane]-13-carboxamide] ([NMeL]I[NMeA][Aze][NMeCha][Sar][hPhe(3-Cl-4-CF3)][X58][Ac5c][NMeGly(cPent)][NMeD]-NMe2; lactam N-11)	1.9	–
CC[C@H](C)[C@@H]1NC(=O)[C@H](CC(C)C)N(C)C(=O)C[C@@H](C(=O)N2CCCCC2)N(C)C(=O)[C@H](C2CCCCC2)N(C)C(=O)C2(CCCC2)NC(=O)CN(CCN2CCNCC2)C(=O)[C@H](CCc2ccc(C(F)(F)F)c(Cl)c2)NC(=O)CN(C)C(=O)[C@H](CC2CCCCC2)N(C)C(=O)CN(C)C(=O)CN(C)C1=O [Compound 2184, (11S,17S,26S,29S,33S,36S)-11-[2-[3-chloro-4-(trifluoromethyl)phenyl]ethyl]-36-cyclohexyl-17-(cyclohexylmethyl)-29-isobutyl-15,18,21,24,30,34,37-heptamethyl-26-[(1S)-1-methylpropyl]-9-(2-piperazin-1-ylethyl)-33-(piperidine-1-carbonyl)-6,9,12,15,18,21,24,27,30,34,37-undecazaspiro[4.33]octatriacontane-7.10,13,16,19,22,25,28,31,35,38-undecone] ([NMeL]I[Sar][Sar][NMeCha][Sar][hPhe(3-Cl-4-CF3)][X136][Ac5c][NMeChg][NMeD]-Piperidide; lactam N-11)	7.9	–
CC[C@H](C)[C@@H]1NC(=O)[C@H](CC(C)C)N(C)C(=O)C[C@@H](C(=O)N2CCCCC2)N(C)C(=O)[C@H](C2CCCCC2)N(C)C(=O)C2(CCCC2)NC(=O)CN(CCOCCN)C(=O)[C@H](CCc2ccc(C(F)(F)F)c(Cl)c2)NC(=O)CN(C)C(=O)[C@H](CC2CCCCC2)N(C)C(=O)CN(C)C(=O)CN(C)C1=O [Compound 2185, (11S,17S,26S,29S,33S,36S)-9-[2-(2-aminoethoxy)ethyl]-11-[2-[3-chloro-4-(trifluoromethyl)phenyl]ethyl]-36-cyclohexyl-17-(cyclohexylmethyl)-29-isobutyl-15,18,21,24,30,34,37-heptamethyl-26-[(1S)-1-methylpropyl]-33-(piperidine-1-carbonyl)-6,9,12,15,18,21,24,27,30,34,37-undecazaspiro[4.33]octatriacontane-7,10,13,16,19,22,25,28,31,35,38-undecone] ([NMeL]I[Sar][Sar][NMeCha][Sar][hPhe(3-Cl-4-CF3)][X138][Ac5c][NMeChg][NMeD]-Piperidide; lactam N-11)	2.4	–
